{"source": "patent US5736556A", "about": "“Tropane-2-aldoxime derivatives as nevro transmitter reuptake inhibitors” (NeuroSearch A/S, priority 1994, dated 1998)", "key": {"[1]": {"target": "T1, ^3 H-noradrenaline uptake (noradrenaline transporter) (Rattus norvegicus, UniProt Q63380)", "T1 construct": "Hippocampi from male Wistar rats (150-200 g) are homogenized; from tissue; host or cells: P2 synaptosomes of hippocampus, male Wistar rats", "T1 sequence (Q63380 1-617)": "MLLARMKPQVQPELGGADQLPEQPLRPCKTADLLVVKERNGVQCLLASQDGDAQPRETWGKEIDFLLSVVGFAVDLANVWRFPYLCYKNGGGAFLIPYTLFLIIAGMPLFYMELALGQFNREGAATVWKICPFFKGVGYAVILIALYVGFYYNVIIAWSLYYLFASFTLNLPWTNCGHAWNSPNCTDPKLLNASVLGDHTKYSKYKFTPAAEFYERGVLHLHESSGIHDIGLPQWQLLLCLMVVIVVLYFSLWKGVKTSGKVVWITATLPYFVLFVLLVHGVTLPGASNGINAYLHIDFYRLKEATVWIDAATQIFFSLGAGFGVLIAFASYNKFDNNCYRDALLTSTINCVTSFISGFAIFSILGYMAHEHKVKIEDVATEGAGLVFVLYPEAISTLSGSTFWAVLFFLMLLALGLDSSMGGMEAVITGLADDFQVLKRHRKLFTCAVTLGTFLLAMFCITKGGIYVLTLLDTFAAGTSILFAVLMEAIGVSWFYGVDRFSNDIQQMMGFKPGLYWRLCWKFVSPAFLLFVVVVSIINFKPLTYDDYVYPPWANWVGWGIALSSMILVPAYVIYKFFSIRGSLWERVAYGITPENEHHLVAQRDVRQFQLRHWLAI", "assay": "In vitro inhibition of ^3 H-noradrenaline (^3 H-NA) uptake in hippocampal synaptosomes", "assay_type": "biochemical, rat (male Wistar)", "conditions": "^3 H-NA 1 nM, 90 min at 37° C.", "source_text": "(§1) The compounds of the invention have also been tested for their ability to inhibit reuptake of dopamine(DA) noradrenalin(NA) and serotonin(5-HT) in synaptosomes.\n(§2) Specific neurotransmitter transporters/uptake sites on nerve terminals presumably function to terminate neuronal signaling by removing the neurotransmitters dopamine, noradrenaline and serotonin, respectively, from the synaptic cleft. The activity of the transporter integral proteins can be measured in vitro by synaptosomal uptake of ^3 H-dopamine, ^3 H-noradrenaline and ^3 H-serotonine, respectively.\nIn vitro inhibition of ^3 H-noradrenaline (^3 H-NA) uptake in hippocampal synaptosomes\n(§3) Tissue preparation: Preparations are performed at 0°-4° C. unless otherwise indicated. Hippocampi from male Wistar rats (150-200 g) are homogenized for 5-10 sec in 100 volumes of ice-cold 0.32M sucrose containing 1 mM pargyline using an Ultra-Turrax homogenizer. Monoamine oxidase activity will be inhibited in the presence of pargyline. The homogenate is centrifuged at 1000×g for 10 min. The resulting supernatant is then centrifuged at 27,000×g for 50 min and the supernatant is discarded. The pellet (P2) is resuspended in oxygenated (equilibrated with an atmosphere of 96% O2 : 4% CO2 for at least 30 min) Krebs-Ringer incubation buffer (2000 ml per g of original tissue) at pH 7.2 containing 122 mM NaCl, 0.16 mM EDTA, 4.8 mM KCl, 12.7 mM Na2 HPO4, 3.0 mM NaH2 PO4, 1.2 mM MgSO4, 0.97 mM CaCl2, 10 mM glucose and 1 mM ascorbic acid.\n(§4) Assay: Aliquots of 4.0 ml tissue suspension are added to 100 μl of test solution and 100 μl of ^3 H-NA (1 nM, final concentration), mixed and incubated for 90 min at 37° C. Non-specific uptake is determined using desipramine (1 μM, final concentration). After incubation the samples are poured directly onto Whatman GF/C glass fibre filters under suction. […] The amount of radioactivity on the filters is determined by conventional liquid scintillation counting. Specific uptake is calculated as the difference between total uptake and non-specific uptake. […]"}, "[2]": {"target": "T2, dopamine transporter (^3 H-dopamine uptake) (Rattus norvegicus, UniProt P23977)", "T2 construct": "Corpi striati from male Wistar rats (150-200 g) are homogenized; from tissue; host or cells: P2 synaptosomes of corpus striatum, male Wistar rats", "T2 sequence (P23977 whole entry)": "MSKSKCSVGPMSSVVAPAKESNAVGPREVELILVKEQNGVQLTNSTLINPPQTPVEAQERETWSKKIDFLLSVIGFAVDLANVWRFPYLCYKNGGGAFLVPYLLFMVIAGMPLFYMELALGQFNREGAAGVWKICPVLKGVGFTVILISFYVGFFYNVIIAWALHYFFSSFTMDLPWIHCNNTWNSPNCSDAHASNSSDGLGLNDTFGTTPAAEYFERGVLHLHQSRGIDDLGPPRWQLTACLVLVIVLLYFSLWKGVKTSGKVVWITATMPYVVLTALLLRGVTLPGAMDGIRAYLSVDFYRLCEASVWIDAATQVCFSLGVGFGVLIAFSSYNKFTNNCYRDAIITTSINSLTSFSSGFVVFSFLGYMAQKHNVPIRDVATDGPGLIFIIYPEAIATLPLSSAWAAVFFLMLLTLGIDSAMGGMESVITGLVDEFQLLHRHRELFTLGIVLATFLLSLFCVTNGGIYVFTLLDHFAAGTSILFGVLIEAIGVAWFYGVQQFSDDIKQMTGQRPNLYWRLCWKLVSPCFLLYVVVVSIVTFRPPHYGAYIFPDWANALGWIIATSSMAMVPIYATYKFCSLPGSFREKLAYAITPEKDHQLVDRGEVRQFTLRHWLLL", "assay": "In vitro inhibition of ^3 H-dopamine (^3 H-DA) uptake in striatal synaptosomes", "assay_type": "biochemical, rat (male Wistar)", "conditions": "^3 H-DA 1 nM, 25 min at 37° C.", "source_text": "as §1, §2\nIn vitro inhibition of ^3 H-dopamine (^3 H-DA) uptake in striatal synaptosomes\nas §3, with “Tissue preparations:” for “Tissue preparation:”, “indicated. Corpi striati” for “indicated. Hippocampi”, “resulting supermatant” for “resulting supernatant”, “buffer (8000” for “buffer (2000”, “MgSO4, 1” for “MgSO4, 0.97”\nas §4, with “H-DA” for “H-NA”, “25” for “90”, “benztropine (10” for “desipramine (1”"}, "[3]": {"test_system": "MPTP-induced Parkinsonism in Marmoset Monkeys", "assay": "Antagonism of MTPT-induced Parkinsonism in Marmoset Monkeys", "assay_type": "in vivo, common marmoset", "conditions": "MPTP-treated marmosets, oral gavage, 0.1 to 2.5 mg/kg; for locomotor activity: 10 h", "source_text": "Antagonism of MTPT-induced Parkinsonism in Marmoset Monkeys\nAdministration of MPTP (1-methyl-4-phenyl-1,2,3,6-tetrahydropyridine, hydrochloride) to monkeys induce a lesion of the dopaminergic system in the brain and gives rise to parkinsonian symptoms. By subsequent administration of test-compounds, the ability of the compounds to alleviate the parkinsonian signs can be tested.\nCommon marmosets (weighing 350-400 g, aged 3-5 years and of either sex) were used in the study. Animals were housed alone under standard conditions at a temperature of […] and 50% relative humidity using a 12 hour light-dark cycle. Animals had free access to food and Water.\nSome months before locomotor or behavioural testing began, animals were treated with MPTP (1-methyl-4-phenyl-1,2,3,6-tetrahydropyridine, hydrochloride) dissolved in sterile 0.9% saline in doses of 2 mg/kg administered subcutaneously daily for 5 days or until a clear parkinsonian state developed. The cumulative doses administered ranged between 8-12 mg/kg. During MPTP treatment and throughout the following 2-3 weeks the animals were hand fed until they had recovered enough to be able to feed themselves.\nTest compounds was dissolved in 100% Tween 80 with warming to 40°-50° C. and then diluted with water. Test compounds was given by oral gavage in a volume of 2 ml/kg. In addition test compound vehicle was administered on each experimental day for comparison with drug treatments. Each animal was treated with vehicle or one of the three doses of test compound over the following weeks, with a one week period of recovery between treatments.\nRating of disability: The disability of animals were scored as follows; alertness (normal 0, sleepy 2); reaction to stimuli (normal 0, reduced 1, slow 2, absent 3); checking movements (present 0, reduced 1, absent 2); attention and eye movements (normal 0, abnormal 1); posture (normal 0, abnormal trunk 1, abnormal limbs 1, abnormal tail 1, or grossly abnormal 4); balance/coordination (normal 0, impaired 1, unstable 2, spontaneous falls 3); vocalization (normal 0, reduced 1, absent 2).\nMeasurement of locomotor activity: Locomotor activity was measured simultaneously for four individual animals each in a metal cage (50 w×60 l×70 h cm) with transparent plastic doors (50 w×70 h cm) similar to the home cages but fitted with eight horizontally orientated infrared photocells. […] Locomotor counts were measured as the number of light beam interuptions which occured as the animals moved about. These movement counts were accumulated in 30 minutes intervals and recorded for the 10 h duration of experimentation.\nData analysis: The mean (±) s.e.m. was calculated for time courses and accumulated locomotor counts or behavioural disability scores for the different treatment groups."}, "[4]": {"test_system": "stereotyped behaviour of the rat", "assay": "Abnormal stereotyped behaviour (side effect profile)", "assay_type": "in vivo", "set-up": "key to Activity (high intensity stereotypy): +: only stereotyped sniffing; ++: stereotyped sniffing and episodic licking; +++: continuous licking and/or biting gnawing", "source_text": "Side Effect Profile of the Compounds of the Present Invention\nThe side effects of cocaine and the central stimulant amphetamine derivatives involve central excitement and stimulation in animals including primates and these effects can also be observed in humans. A serious side effect of cocaine and of the amphetamine derivatives includes also the ability to provoke toxic psychotic symptoms closely resembling the mental disease schizophrenia and these include halucinations, paranoia and abnormal bizarre stereotyped mental activity and stereotypy.\nThe induction of stereotyped abnormal behavior in rodents thus also represents one of the most used animal models of schizophrenia in models for antipsychotic neuroleptic drugs (including haloperidol and chlorpromazine).\nThe development of toxic abnormal stereotyped amphetamine syndrome as described below may predict a toxic central stimulant side effect of dopamine releasing compounds in humans.\nClassification of the Abnormal Stereotyped Behaviour\nIn general, the abnormal stereotyped behaviour after administration of amphetamine and cocaine-like central stimulant drugs can be classified into \"low\" and \"high\" intensity scores of stereotyped behaviour. […]"}, "[5]": {"target": "T3, dopamine transporter (Rattus norvegicus, UniProt P23977)", "T3 construct": "Corpus striatum from male Wistar rats (150-200 g) is homogenized; from tissue; host or cells: corpus striatum of male Wistar rats", "T3 sequence (P23977 whole entry)": "as above", "conditions": "background, in vitro, in words; cited from earlier work"}, "[6]": {"target": "dopamine transporter (Mus musculus, UniProt Q61327)", "sequence (Q61327 whole entry)": "as the sequence (P23977 whole entry) above, with S21P, A57V, A194S, H600R, L619V counted along it", "conditions": "cited from earlier work"}, "[7]": {"target": "T2, dopamine transporter (^3 H-dopamine uptake)", "conditions": "background, in words; cited from earlier work"}}}
{"smiles": "CON=C[C@@H]1[C@@H](c2ccc(Cl)c(Cl)c2)C[C@@H]2CC[C@H]1N2C", "note": "(single isomer, unassigned) [(1R,2R,3S)-3-(3,4-dichlorophenyl)-tropane 2-O-methyl-aldoxime, syn-isomere]", "values": [{"measurement": "IC50", "setting": "[1]", "result": 1.5, "unit": "nM"}, {"measurement": "IC50", "setting": "[2]", "result": 3.4, "unit": "nM"}]}
{"smiles": "CON=C[C@@H]1[C@@H](c2ccc(Cl)c(Cl)c2)C[C@@H]2CC[C@H]1N2C", "note": "[NS2214, (1R,2R,3S)-3-(3,4-dichlorophenyl)tropane-2O-methyl-aldoxime]", "values": [{"measurement": "disability scores", "setting": "[3]", "result": "dose-dependent decrease in disability scores"}, {"measurement": "locomotor activity", "setting": "[3]", "result": "dose dependent increase in locomotor activity"}, {"measurement": "locomotor activity", "setting": "[3]; listed as NS 2214", "result": "dose-dependent increase in locomotor activity"}, {"measurement": "disability scores", "setting": "[3]; listed as NS 2214", "result": "dose dependent decrease in disability scores"}, {"measurement": "Activity (high intensity stereotypy)", "setting": "[4]; 15 mg/kg p.o.", "result": "+++"}, {"measurement": "lowest dosis giving the activity indicated (stereotypy +++)", "setting": "[4]; p.o.", "result": 15, "unit": "mg/kg"}]}
{"smiles": "COC(=O)[C@H]1[C@@H](c2ccc(F)cc2)C[C@@H]2CC[C@H]1N2C", "note": "[^3 H-WIN 35428]", "values": [{"measurement": "binding to the dopamine transporter", "setting": "[5]", "result": "binds selectively and with high affinity to the dopamine transporter complex"}, {"measurement": "time to maximum of specific binding in the striatum", "setting": "[6]; in vivo, iv", "result": 30, "unit": "min"}]}
{"smiles": "COC(=O)[C@H]1[C@@H](OC(=O)c2ccccc2)C[C@@H]2CC[C@H]1N2C", "note": "[cocaine]", "values": [{"measurement": "binding to the dopamine transporter", "setting": "[5]", "result": "binds to the dopamine transporter"}, {"measurement": "inhibition of ^3 H-dopamine uptake", "setting": "[7]", "result": "inhibits ^3 H-dopamine uptake"}, {"measurement": "prevention of specific binding of ^3 H-WIN 35428 in vivo", "setting": "[6]", "result": "partly or completely prevented"}]}
